# Test results as given in patent US20040122106A1, “Tablets quickly disintegrating in oral cavity” (priority 2001, published 2004).
# Counter-ions that a name gives are not always drawn.
# Assay: physchem
# [1] = water, 20 °C, thermodynamic from solid
# Description: The water solubility of the pharmacologically active ingredient was determined by the method described in the Japanese Pharmacopoeia, the General Rule 13, Paragraph 23.
smiles,measurement,setting,value
CN(C)C(=O)C(CCN1CCC(O)(c2ccc(Cl)cc2)CC1)(c1ccccc1)c1ccccc1 [loperamide hydrochloride],solubility at 30 min,"20 °C, water, thermodynamic from solid",~1 mg/mL
C[C@H](CS)C(=O)N1CCC[C@H]1C(=O)O [captopril],solubility at 30 min,[1],~60 mg/mL
NC(N)=Nc1nc(CSCCC(N)=NS(N)(=O)=O)cs1 [famotidine],solubility at 30 min,[1],~0.7 mg/mL
Nc1c(Br)cc(Br)cc1CN[C@H]1CC[C@H](O)CC1 [ambroxol hydrochloride],solubility at 30 min,[1],~20 mg/mL
COc1ccc(OC)c(C(O)CNC(=O)CN)c1 (stereo not drawn) [midodrine hydrochloride],solubility at 30 min,[1],~100 mg/mL
O=c1[nH]c2ccccc2n1CCCN1CCC(n2c(=O)[nH]c3cc(Cl)ccc32)CC1 [domperidone],solubility at 30 min,[1],~0.002 mg/mL
